Drawing on patent publication US11236087B2, “Highly active pyrazolo-piperidine substituted indole-2-carboxamides active against the hepatitis B virus (HBV)” (AiCuris GmbH & Co. KG, priority 2017, dated 2022), this text covers EC50, IC50 and CC50 for 23 compounds.

Series [1] has as its system HBV. Put plainly: Determination of HBV DNA from the supernatants of HepAD38 cells (anti-HBV activity). The format is cell-based, hepatitis B virus. As to conditions: Hepatitis B virus, read-out: Cell Activity (EC50). In a few lines:
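Supernatant viral DNA was measured by LightCycler qPCR, calibrated with pCH-9/3091 plasmid, 6 days after tetracycline-free HepAD38 cultures received half-log serial compound dilutions; untreated and tetracycline-treated cells served as controls; EC50 was fitted by non-linear regression.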

Series [2] deals with T1, HBV core protein (UniProt P03146).
T1 construct: fused on or other part: BODIPY-FL maleimide label on the C-terminal Cys150
The experiment in a line: Biochemical capsid assembly assay (fluorescence quenching). More on the design: species or system hepatitis B virus. As to conditions: read-out: Assembly Activity (IC50); BODIPY-FL labelled core protein, 300 μM NaCl, read 6 min after start. In a few lines:
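Assembly-induced fluorescence quenching (477/525 nm) was measured 6 min after NaCl addition ([…]), against 2.5 M and 0 M NaCl controls. The labelled C150 core dimer (truncated at 149) at 1.0-2.0 μM in HEPES pH 7.5 was tested with eight half-log compound dilutions, top 100, 31.6 or 10 μM. EC50 was obtained by non-linear fit from triplicates run three times.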

A short description of series [3]: Cell viability assay (AlamarBlue) in HepAD38 cells. As to conditions: human.
The mark [4] stands for this setting: 144 h, HBV DNA in HepAD38 supernatant, day 6, qPCR.

Like-named read-outs stand apart in the source and are kept apart here.

T1 sequence (P03146 whole entry, looked up, the tested form may be a part): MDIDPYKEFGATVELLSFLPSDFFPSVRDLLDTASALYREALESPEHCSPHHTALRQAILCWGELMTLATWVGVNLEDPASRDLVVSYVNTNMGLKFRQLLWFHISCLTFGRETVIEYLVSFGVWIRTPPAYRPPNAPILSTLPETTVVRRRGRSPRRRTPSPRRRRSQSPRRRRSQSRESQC

In the case of `CN(CCO)C(=O)c1n[nH]c2c1CN(C(=O)c1cc3c(C(C)(F)F)cccc3[nH]1)CC2` [Example 5, 5-[4-(1,1-difluoroethyl)-1H-indole-2-carbonyl]-N-(2-hydroxyethyl)-N-methyl-1H,4H,5H,6H,7H-pyrazolo[4,3-c]pyridine-3-carboxamide], in series [1] (setting [4]), the EC50 is below 100 µM. For the same compound, the IC50 in series [2] was below 5 µM. In series [3], this compound yielded a CC50 at 6 days above 32 µM.

Turning to `NC(=O)c1n[nH]c2c1CN(C(=O)c1cc3ccccc3[nH]1)CC2` [Example 106, 5-(1H-indole-2-carbonyl)-1H,4H,5H,6H,7H-pyrazolo[4,3-c]pyridine-3-carboxamide], the EC50 in series [1] (setting [4]) is below 100 µM. For the same compound, the IC50 in series [2] was below 100 µM. In addition, the CC50 at 6 days in series [3] is above 100 µM.

`CC(C)OC(=O)[C@H](C)NP(=O)(OCCCN(C)C(=O)c1n[nH]c2c1CN(C(=O)c1cc3ccccc3[nH]1)CC2)Oc1ccccc1` (stereo partly drawn) [Example 70, propan-2-yl (2S)-2-{[(3-{1-[5-(1H-indole-2-carbonyl)-1H,4H,5H,6H,7H-pyrazolo[4,3-c]pyridin-3-yl]-N-methylformamido}propoxy)(phenoxy)phosphoryl]amino}propanoate]: in series [1] (HePAD38, 144 h), the concentration for a half-maximal effect (EC50) is 1 to 25 µM. Moreover, the IC50 in series [2] was below 5 µM. In series [3], this compound gave a CC50 at 6 days above 32 µM.

With `CC(C)(O)C1CN(C(=O)c2n[nH]c3c2CN(C(=O)c2cc4ccccc4[nH]2)CC3)C1` [Example 39, 2-{1-[5-(1H-indole-2-carbonyl)-1H,4H,5H,6H,7H-pyrazolo[4,3-c]pyridine-3-carbonyl]azetidin-3-yl}propan-2-ol], in series [1] (setting [4]), the EC50 was in the range of 1 to 25 µM. In series [2], the IC50 is below 100 µM. In addition, the CC50 at 6 days in series [3] is above 32 µM.

Regarding `COCCN(C)C(=O)c1n[nH]c2c1CN(C(=O)c1cc3ccccc3[nH]1)CC2` [Example 54, 5-(1H-indole-2-carbonyl)-N-(2-methoxyethyl)-N-methyl-1H,4H,5H,6H,7H-pyrazolo[4,3-c]pyridine-3-carboxamide], in series [1] (setting [4]), the EC50 is below 1 µM. Also, the IC50 in series [2] is below 5 µM. In series [3], this compound showed a CC50 at 6 days above 100 µM.

In the case of `O=C(NCCCO)c1n[nH]c2c1CN(C(=O)c1cc3ccccc3[nH]1)CC2` [Example 105, N-(3-hydroxypropyl)-5-(1H-indole-2-carbonyl)-1H,4H,5H,6H,7H-pyrazolo[4,3-c]pyridine-3-carboxamide], the EC50 in series [1] (setting [4]) lay in the range of 1 to 25 µM. For the same compound, in series [2], the IC50 is below 100 µM. Also, the CC50 at 6 days in series [3] is above 100 µM.

Regarding `CON(C)C(=O)c1n[nH]c2c1CN(C(=O)c1cc3c(C)cc(F)cc3[nH]1)CC2` [Example 128, 5-(6-fluoro-4-methyl-1H-indole-2-carbonyl)-N-methoxy-N-methyl-1H,4H,5H,6H,7H-pyrazolo[4,3-c]pyridine-3-carboxamide], the EC50 in series [1] (setting [4]) is below 1 µM. Also, in series [2], the IC50 was below 5 µM. The CC50 at 6 days in series [3] was determined as 98 µM.

On to `CN(CCO)C(=O)c1n[nH]c2c1CN(C(=O)c1cc3c(C(F)F)cc(F)cc3[nH]1)CC2` [Example 3, 5-[4-(difluoromethyl)-6-fluoro-1H-indole-2-carbonyl]-N-(2-hydroxyethyl)-N-methyl-1H,4H,5H,6H,7H-pyrazolo[4,3-c]pyridine-3-carboxamide], for which the EC50 in series [1] (setting [4]) is below 1 µM. Moreover, in series [2], the IC50 was below 5 µM. The compound further registered a CC50 at 6 days in series [3] above 10 µM.

For `CN(C)c1n[nH]c2c1CN(C(=O)c1cc3ccccc3[nH]1)CC2` [Example 75, 5-(1H-indole-2-carbonyl)-N,N-dimethyl-1H,4H,5H,6H,7H-pyrazolo[4,3-c]pyridin-3-amine], the EC50 in series [1] (setting [4]) is below 1 µM. For the same compound, in series [2], the IC50 fell in the range of 5 to 10 µM. Besides, in series [3], the CC50 at 6 days was above 100 µM.

As to `C=Cc1scnc1-c1n[nH]c2c1CN(C(=O)c1cc3ccccc3[nH]1)CC2` [Example 317, 2-[3-(5-ethenyl-1,3-thiazol-4-yl)-1H,4H,5H,6H,7H-pyrazolo[4,3-c]pyridine-5-carbonyl]-1H-indole], in series [1] (setting [4]), the EC50 was below 1 µM. Besides, the IC50 in series [2] was below 5 µM. Also, in series [3], the CC50 at 6 days was above 10 µM.

For the compound `CON(C)C(=O)c1n[nH]c2c1CN(C(=O)c1cc3c(C)cccc3[nH]1)CC2` [Example 131, N-methoxy-N-methyl-5-(4-methyl-1H-indole-2-carbonyl)-1H,4H,5H,6H,7H-pyrazolo[4,3-c]pyridine-3-carboxamide], in series [1] (setting [4]), the EC50 is below 1 µM. In series [2], the IC50 is below 5 µM. Besides, the CC50 at 6 days in series [3] is above 100 µM.

Take `CON(C)C(=O)c1n[nH]c2c1CN(C(=O)c1cc3c(F)cc(F)cc3[nH]1)CC2` [Example 127, 5-(4,6-difluoro-1H-indole-2-carbonyl)-N-methoxy-N-methyl-1H4H,5H,6H,7H-pyrazolo[4,3-c]pyridine-3-carboxamide]: the EC50 in series [1] (setting [4]) was below 1 µM. The IC50 in series [2] is below 5 µM. Also, the CC50 at 6 days in series [3] was above 100 µM.

Regarding `CN(C(=O)c1[nH]nc2c1CN(C(=O)c1cc3c(F)cccc3[nH]1)CC2)C1CC1` [Example 322, N-cyclopropyl-5-(4-fluoro-1H-indole-2-carbonyl)-N-methyl-2H,4H,5H,6H,7H-pyrazolo[4,3-c]pyridine-3-carboxamide], the EC50 in series [1] (setting [4]) is below 1 µM. For the same compound, the IC50 in series [2] was below 5 µM. The same compound registered a CC50 at 6 days in series [3] above 10 µM.

For the compound `CC(C)(C)OC(=O)N[C@@H]1CCN(C(=O)c2n[nH]c3c2CN(C(=O)c2cc4ccccc4[nH]2)CC3)C1` [Example 191, tert-butyl N-[(3R)-1-[5-(1H-indole-2-carbonyl)-1H,4H,5H,6H,7H-pyrazolo[4,3-c]pyridine-3-carbonyl]pyrrolidin-3-yl]carbamate], the 50% effective concentration (EC50) in series [1] (setting [4]) lay in the range of 1 to 25 µM. In series [2], the IC50 was below 5 µM. This compound came in with a CC50 at 6 days in series [3] above 10 µM.

With `CCc1cccc2[nH]c(C(=O)N3CCc4n[nH]c(C(=O)N(C)C5CC5)c4C3)cc12` [Example 328, N-cyclopropyl-5-(4-ethyl-1H-indole-2-carbonyl)-N-methyl-2H,4H,5H,6H,7H-pyrazolo[4,3-c]pyridine-3-carboxamide], the concentration for a half-maximal effect (EC50) in series [1] (setting [4]) was below 1 µM. In series [2], the IC50 was below 5 µM. This compound also displayed a CC50 at 6 days in series [3] above 10 µM.

For `CN(CCO)C(=O)c1n[nH]c2c1CN(C(=O)c1cc3cc(F)c(F)cc3[nH]1)CC2` [Example 7, 5-(5,6-difluoro-1H-indole-2-carbonyl)-N-(2-hydroxyethyl)-N-methyl-1H,4H,5H,6H,7H-pyrazolo[4,3-c]pyridine-3-carboxamide], the EC50 in series [1] (setting [4]) was below 1 µM. The IC50 in series [2] is below 5 µM. In series [3], the half-maximal cytotoxic concentration (CC50) at 6 days was above 10 µM.

For `CC(C)OC(=O)[C@H](C)NP(=O)(OCCCN(C)C(=O)c1n[nH]c2c1CN(C(=O)c1cc3c(Cl)cccc3[nH]1)CC2)Oc1ccccc1` (stereo partly drawn) [Example 66, propan-2-yl (2S)-2-{[(3-{1-[5-(4-chloro-1H-indole-2-carbonyl)-1H,4H,5H,6H,7H-pyrazolo[4,3-c]pyridin-3-yl]-N-methylformamido}propoxy)(phenoxy)phosphoryl]amino}propanoate], the EC50 in series [1] (HePAD38, 144 h) was below 1 µM. Besides, the IC50 in series [2] was below 5 µM. Also, the CC50 at 6 days in series [3] was above 32 µM.

As for `O=C(c1cc2c(F)c(F)ccc2[nH]1)N1CCc2n[nH]c(-c3cscn3)c2C1` [Example 22, 4,5-difluoro-2-[3-(1,3-thiazol-4-yl)-2H,4H,5H,6H,7H-pyrazolo[4,3-c]pyridine-5-carbonyl]-1H-indole], the EC50 in series [1] (setting [4]) was below 1 µM. In addition, the IC50 in series [2] is below 5 µM. In series [3], this compound returned a CC50 at 6 days above 10 µM.

Regarding `CON(C)C(=O)c1n[nH]c2c1CN(C(=O)c1cc3ccccc3[nH]1)CC2` [Example 138, 5-(1H-indole-2-carbonyl)-N-methoxy-N-methyl-1H,4H,5H,6H,7H-pyrazolo[4,3-c]pyridine-3-carboxamide], the EC50 in series [1] (setting [4]) was below 1 µM. For the same compound, the IC50 in series [2] was below 5 µM. The CC50 at 6 days in series [3] is above 100 µM.

On to `CN(CCO)C(=O)c1n[nH]c2c1CN(C(=O)c1cc3c(F)c(F)ccc3[nH]1)CC2` [Example 52, 5-(4,5-difluoro-1H-indole-2-carbonyl)-N-(2-hydroxyethyl)-N-methyl-1H,4H,5H,6H,7H-pyrazolo[4,3-c]pyridine-3-carboxamide], for which the EC50 in series [1] (setting [4]) was below 1 µM. Also, the IC50 in series [2] is below 5 µM. The CC50 at 6 days in series [3] was above 100 µM.

Turning to `CCNC(=O)c1n[nH]c2c1CN(C(=O)c1cc3ccccc3[nH]1)CC2` [Example 109, N-ethyl-5-(1H-indole-2-carbonyl)-1H,4H,5H,6H,7H-pyrazolo[4,3-c]pyridine-3-carboxamide], the EC50 in series [1] (setting [4]) was in the range of 1 to 25 µM. Further, the IC50 in series [2] was 5 to 10 µM. This compound yielded a CC50 at 6 days in series [3] above 100 µM.

For `COCC1(N(C)C(=O)c2n[nH]c3c2CN(C(=O)c2cc4c(F)c(F)ccc4[nH]2)CC3)CC1` [Example 267, 5-(4,5-difluoro-1H-indole-2-carbonyl)-N-[1-(methoxymethyl)cyclopropyl]-N-methyl-1H,4H,5H,6H,7H-pyrazolo[4,3-c]pyridine-3-carboxamide], the EC50 in series [1] (setting [4]) is below 1 µM. Further, the IC50 in series [2] is below 5 µM. The same compound registered a CC50 at 6 days in series [3] above 10 µM.

For the compound `CN(C(=O)c1[nH]nc2c1CN(C(=O)c1cc3ccccc3[nH]1)CC2)[C@H]1CCC[C@@H]1O` [Example 252, N-[(1S,2S)-2-hydroxycyclopentyl]-5-(1H-indole-2-carbonyl)-N-methyl-2H,4H,5H,6H,7H-pyrazolo[4,3-c]pyridine-3-carboxamide], in series [1] (setting [4]), the EC50 is below 1 µM. In series [2], the IC50 was below 5 µM. The compound further came in with a CC50 at 6 days in series [3] above 10 µM.
